From patent US20090036544A1, “METHODS AND COMPOSITIONS FOR INHIBITING THE PROLIFERATION OF PROSTATE CANCER CELLS” (priority 2001, published 2009) come the findings set out here.

One test concerns LNCaP cells. Briefly: Cell proliferation assay (MTS) in LNCaP cells. To be noted: five days. In kind it is cell-based, human. As for the experimental part: (§1) A human prostate cancer cell line, LNCaP (American Type Culture Collection (ATCC), Manassas, Va.), was grown in RPMI 1640 medium (Mediatech, Herndon, Va.) supplemented with 5% fetal bovine serum (FBS) and 5% CO2 at 37° C. until reaching approximately 50-70% confluence. The media were changed to serum-free RPMI 1640 at 24 hrs prior to performing experiments to deplete undesired steroids. Cells were then treated with 5% charcoal-stripped FBS RPMI 1640 containing POH (all from Sigma (St. Louis, Mo.), dissolved in DMSO) at indicated concentrations with or without 1 nM of mibolerone (Mib) (from New England Nuclear (St. Louis, Mo.), dissolved in ethanol), a non-metabolizable synthetic androgen. Equivalent amounts of solvent were added to control cells.
(§2) LNCaP cells were seeded at 4×10^4/well in 24-well dishes and treated with POH at indicated concentrations in the presence of 1 nM Mib. Five days later, cell proliferation was measured using an MTS assay kit (Promega, Madison, Wis.), and PSA and hK2 levels in spent media were determined by the Tandem-E PSA kit (Hybritech Inc., San Diego, Calif.) or Mayo's hK2 assay (Zhang et al., 1999, Endocrin., 140:1665-71). Protein levels of PSA and hK2 were normalized to the MTS measurements.

The next test has as its system PSA. Nature of the test: PSA quantification in spent media of LNCaP cells (Tandem-E PSA kit). To be noted: 1 nM Mib, five days, normalized to MTS; FIG. 2A. In kind it is cell-based, human. As for the experimental part:
as §1, §2

The subject of another test is hK2. Nature of the test: hK2 quantification in spent media of LNCaP cells (Mayo's hK2 assay). In kind it is cell-based, human. Particulars: 1 nM Mib, five days, normalized to MTS; FIG. 2B. As for the experimental part: as §1, §2
Test [1] has as its system androgen receptor. Nature of the test: Transient transfection luciferase reporter assay, PSA promoter, in LNCaP cells. In kind it is cell-based, human. Particulars: 1 nM Mib, 24 hrs, FIG. 3A. The source says: (§3) The 6 Kb PSA promoter and the androgen receptor promoter constructs (pGL3 SV40, pGL3 SV40-3 ARE, pGL3 or PSA promoter/pGL3) were described previously (Id). To make an hk2 androgen responsive element (hk2 ARE) construct, a DNA fragment containing three copies of hk2 ARE (5′-[…]-3′ (SEQ ID NO:1)) was synthesized by the Mayo Molecular Core Facility. The synthesized fragment, including SacI and XhoI restriction enzyme sites at the 5′ and 3′-end, respectively, was digested with SacI and XhoI according to manufacturer's instructions and inserted into a pre-cut pGL3-Promoter vector (Promega). The fidelity of this construct was confirmed by DNA sequencing.
(§4) LNCaP cells in duplicate plates were co-transfected with a CMV-β galactosidase (β-gal) expression vector (0.3 μg/plate) and one of the following: a pGL3-Basic luciferase vector (Promega) containing the PSA promoter (nucleotides 1-5836 of GenBank Accession No. U37672), a pGL3-Promoter luciferase vector (Promega) containing three copies of hk2 ARE, a PGL3 vector or PSA promoter/PGL3 vector. Transfections were performed using a liposome method with dimethyldioctadecyl-ammonium bromide (Sigma) and L-lecithin (Sigma) (4:10). Cells were then treated with POH in the presence or absence of 1 nM Mib for 24 hrs. Cell extracts were prepared and used for luciferase and β-gal assays (Promega). […]
Background: A reporter such as luciferase makes a cellular process visible.

Test [2] concerns androgen receptor. Nature of the test: Transient transfection luciferase reporter assay, 3 copies of hK2 ARE, in LNCaP cells. In kind it is cell-based, human. Particulars: minimum SV40 promoter and 3 copies of hK2 ARE, 1 nM Mib, 24 hrs, FIG. 3B.
Excerpt: as §3, §4

For test [3], the system named is androgen receptor. Nature of the test: Western blot analysis of androgen receptor protein in LNCaP cells. In kind it is cell-based, human. To be noted: POH until a concentration of 1 μM is reached, 1 nM Mib, 24 hrs. As for the experimental part: LNCaP cells were treated with the indicated concentrations of POH in the presence of 1 nM Mib for 24 hrs. Cells were then harvested, and whole-cell lysates and nuclear extracts were prepared as described (Mitchell et al., 1999, Cancer Res., 59:5892-5). Western blot analysis was performed according to the protocol described (Id). A mouse antibody against the human androgen receptor (1:1000 or 1:2000 dilution) (Pharmingen, San Diego, Calif.) or human tubulin (1:10,000 dilution) (Santa Cruz, Santa Cruz, Calif.) was used as the primary antibody. Ponceau S staining was used for monitoring protein loading and transfer efficiency (Id).
(In general: Immunoblotting shows a protein as a band on a membrane.)

In test [4] the test system is androgen receptor promoter. Nature of the test: Luciferase reporter assay with androgen receptor promoter in LNCaP cells. In kind it is cell-based, human.
Excerpt: as §3, §4

The next test deals with c-jun. Briefly: Expression of c-jun protein after POH treatment. In kind it is cell-based. To be noted: normalized data, FIG. 6. As for the experimental part:
In order to ascertain how androgen receptor function was being inhibited by POH at levels below 1 μM, c-jun was examined. […] The graph depicts the normalized data. This experiment was repeated twice and representative data is shown.

Turning to `C[C@@H]1CC2=CC(=O)CC[C@@H]2[C@H]2CC[C@@]3(C)[C@@H](CC[C@]3(C)O)[C@@H]21` [Mib, mibolerone], the LNCaP cell proliferation result with LNCaP cells (presence of Mib (1 nM), FIG. 1) is listed as “significantly increased”.

For the molecule `C=C(C)[C@@H]1CC=C(CO)CC1` [POH, Perillyl alcohol], the “proliferation of LNCaP cells” value with LNCaP cells (POH in the presence of 1 nM Mib, p<0.05, FIG. 1) is “significantly inhibited”. Moreover, the “accumulation of PSA protein in LNCaP cells stimulated by androgens” value in the test with PSA is reported as “inhibited”. Moreover, in the test with hK2, the “accumulation of hK2 protein in LNCaP cells stimulated by androgens” value is “inhibited”. Also, in the test with androgen receptor [1], the “androgenic inducibility of the PSA promoter (luciferase reporter)” value was “significantly reduced”. The ARE-regulated luciferase activity entry with androgen receptor [2] was “inhibited”. Also, the “androgen-enhanced androgen receptor protein levels” value in the test with androgen receptor [3] is recorded as “not affected”. For the same molecule, the “androgen receptor promoter activity” value in test [4] (POH at 1 μM) was “drastically reduced”; in test [4] (POH below 1 μM), “not affected”. For the same molecule, the level of c-jun result in the test on c-jun is reported as “up to 3.5 times the control levels”.
